ChEMBL document CHEMBL5724914, “Linking interpersonal differences in gut microbiota composition and drug biotransformation activity” (2024)

Columns and labels:
[1] = The drug is tested on WLS-027 corresponding to human gut metagenome with ENA study accession number: PRJEB37062 and ENA sample accession number: ERS12561744 for biotransformation under anaerobic condition. The drug concentrations were measured over 9 timepoints collected between 0 and 24 hours of incubation by liquid-chromatography-coupled mass spectrometry (LC–MS); conditions: 2 µM
[2] = human gut metagenome, 24 h, 2 µM
[3] = The drug is tested on WLS-170 corresponding to human gut metagenome with ENA study accession number: PRJEB37062 and ENA sample accession number: ERS12561762 for biotransformation under anaerobic condition. The drug concentrations were measured over 9 timepoints collected between 0 and 24 hours of incubation by liquid-chromatography-coupled mass spectrometry (LC–MS); conditions: 2 µM
[4] = human gut metagenome, 24 h, 2 µM; remark: listed apart in the source
[5] = human gut metagenome, 24 h, 2 µM; remark: listed apart in the source
[6] = human gut metagenome, 24 h, 2 µM; remark: listed apart in the source
[7] = The drug is tested on Z-003 corresponding to pig gut metagenome with ENA study accession number: PRJEB37062 and ENA sample accession number: ERS12561803 for biotransformation under anaerobic condition. The drug concentrations were measured over 9 timepoints collected between 0 and 24 hours of incubation by liquid-chromatography-coupled mass spectrometry (LC–MS); conditions: 2 µM
Also: call rule not given here.

## N#Cc1ccc2c(c1)N(CCCN1CCC(O)CC1)c1ccccc1S2 [PERICIAZINE]
[1]
  Bacterial Biotransformation: Compound metabolized
[2]
  Bacterial Biotransformation: Compound metabolized
[3]
  Bacterial Biotransformation: Compound metabolized
[4]
  Bacterial Biotransformation: Compound metabolized
[5]
  Bacterial Biotransformation: Compound NOT metabolized
[6]
  Bacterial Biotransformation: Compound metabolized

## COCCCC/C(=N\OCCN)c1ccc(C(F)(F)F)cc1.O=C(O)/C=C\C(=O)O [FLUVOXAMINE MALEATE]
[1]
  Bacterial Biotransformation: Compound NOT metabolized
[2]
  Bacterial Biotransformation: Compound metabolized
[3]
  Bacterial Biotransformation: Compound NOT metabolized
[4]
  Bacterial Biotransformation: Compound metabolized
[5]
  Bacterial Biotransformation: Compound NOT metabolized
[6]
  Bacterial Biotransformation: Compound NOT metabolized

## O=C([O-])C[C@H](O)C[C@H](O)/C=C/c1c(C2CC2)nc2ccccc2c1-c1ccc(F)cc1.O=C([O-])C[C@H](O)C[C@H](O)/C=C/c1c(C2CC2)nc2ccccc2c1-c1ccc(F)cc1.[Ca+2] [PITAVASTATIN CALCIUM]
[1]
  Bacterial Biotransformation: Compound metabolized
[2]
  Bacterial Biotransformation: Compound metabolized
[3]
  Bacterial Biotransformation: Compound NOT metabolized
[4]
  Bacterial Biotransformation: Compound metabolized
[5]
  Bacterial Biotransformation: Compound metabolized
[6]
  Bacterial Biotransformation: Compound metabolized

## CC#CCn1c(N2CCC[C@@H](N)C2)nc2c1c(=O)n(Cc1nc(C)c3ccccc3n1)c(=O)n2C [LINAGLIPTIN]
[2]
  Bacterial Biotransformation: Compound NOT metabolized
[3]
  Bacterial Biotransformation: Compound NOT metabolized
[5]
  Bacterial Biotransformation: Compound NOT metabolized
[6]
  Bacterial Biotransformation: Compound NOT metabolized

## CN1CCN(C2=Nc3ccccc3Oc3ccc(Cl)cc32)CC1.O=C(O)CCC(=O)O [LOXAPINE SUCCINATE]
[1]
  Bacterial Biotransformation: Compound NOT metabolized
[2]
  Bacterial Biotransformation: Compound NOT metabolized
[3]
  Bacterial Biotransformation: Compound NOT metabolized
[4]
  Bacterial Biotransformation: Compound NOT metabolized
[5]
  Bacterial Biotransformation: Compound NOT metabolized
[6]
  Bacterial Biotransformation: Compound NOT metabolized

## CN(C)CCc1c[nH]c2ccc(CS(=O)(=O)N3CCCC3)cc12 [ALMOTRIPTAN]
[1]
  Bacterial Biotransformation: Compound NOT metabolized
[2]
  Bacterial Biotransformation: Compound NOT metabolized
[3]
  Bacterial Biotransformation: Compound metabolized
[4]
  Bacterial Biotransformation: Compound NOT metabolized
[5]
  Bacterial Biotransformation: Compound NOT metabolized
[6]
  Bacterial Biotransformation: Compound metabolized

## N[C@@H](Cc1ccc(N(CCCl)CCCl)cc1)C(=O)O
[1]
  Bacterial Biotransformation: Compound metabolized
[2]
  Bacterial Biotransformation: Compound metabolized
[7]
  Bacterial Biotransformation: Compound metabolized
[3]
  Bacterial Biotransformation: Compound metabolized
[5]
  Bacterial Biotransformation: Compound metabolized
[6]
  Bacterial Biotransformation: Compound metabolized

## CCOC(=O)C1=C(C)NC(C)=C(C(=O)OC)C1c1cccc([N+](=O)[O-])c1 (configuration not stated) [NITRENDIPINE]
[1]
  Bacterial Biotransformation: Compound metabolized
[2]
  Bacterial Biotransformation: Compound metabolized
[3]
  Bacterial Biotransformation: Compound metabolized
[4]
  Bacterial Biotransformation: Compound metabolized
[5]
  Bacterial Biotransformation: Compound metabolized
[6]
  Bacterial Biotransformation: Compound metabolized

## Cc1nc(Nc2ncc(C(=O)Nc3c(C)cccc3Cl)s2)cc(N2CCN(CCO)CC2)n1 [DASATINIB ANHYDROUS]
[1]
  Bacterial Biotransformation: Compound metabolized
[2]
  Bacterial Biotransformation: Compound metabolized
[3]
  Bacterial Biotransformation: Compound metabolized
[4]
  Bacterial Biotransformation: Compound metabolized
[5]
  Bacterial Biotransformation: Compound NOT metabolized
[6]
  Bacterial Biotransformation: Compound metabolized
